Experimental data reported in patent publication US20230078764A1 (Yumanity Therapeutics, Inc., priority 2019, published 2023).
Like-named read-outs stand apart in the source and are kept apart here.

Key:
human SCD1 = biological target: T1, human SCD1 (Homo sapiens, UniProt O00767); test: Growth inhibition of yeast strain expressing human SCD1 as sole desaturase (OLE1 deleted), OD600 readout; type: cell-based
T1 construct: expressed in transfected cells; host or cells: yeast strain with OLE1 deleted, plasmid-borne human SCD1 (selected in SD-Ura)
T1 sequence (O00767 1-359): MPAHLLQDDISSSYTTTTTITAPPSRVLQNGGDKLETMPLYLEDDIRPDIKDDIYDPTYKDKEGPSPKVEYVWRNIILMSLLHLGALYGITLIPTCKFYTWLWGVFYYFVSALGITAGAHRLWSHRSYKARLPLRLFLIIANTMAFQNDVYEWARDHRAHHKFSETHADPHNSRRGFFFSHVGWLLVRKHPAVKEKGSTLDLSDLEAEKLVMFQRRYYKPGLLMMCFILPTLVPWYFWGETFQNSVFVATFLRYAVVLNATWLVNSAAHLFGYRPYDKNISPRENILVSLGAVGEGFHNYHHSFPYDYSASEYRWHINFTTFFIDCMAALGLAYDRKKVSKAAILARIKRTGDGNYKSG

human SCD5 = biological target: T2, human SCD5 (Homo sapiens, UniProt Q86SK9); test: Growth inhibition of yeast strain expressing human SCD5 as sole desaturase (OLE1 deleted), OD600 readout; type: cell-based
T2 construct: expressed in transfected cells; host or cells: yeast strain with OLE1 deleted, plasmid-borne human SCD5 (selected in SD-Ura)
T2 sequence (Q86SK9 1-330): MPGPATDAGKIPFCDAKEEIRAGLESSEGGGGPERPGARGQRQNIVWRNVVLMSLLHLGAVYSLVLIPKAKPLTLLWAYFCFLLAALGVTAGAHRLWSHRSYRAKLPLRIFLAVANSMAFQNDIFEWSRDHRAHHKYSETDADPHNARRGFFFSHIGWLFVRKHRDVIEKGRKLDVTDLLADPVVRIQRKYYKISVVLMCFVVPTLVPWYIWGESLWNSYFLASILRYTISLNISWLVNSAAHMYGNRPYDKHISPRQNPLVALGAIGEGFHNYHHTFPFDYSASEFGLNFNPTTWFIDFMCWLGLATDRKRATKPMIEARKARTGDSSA

[1] = yeast strain expressing human SCD1 as sole desaturase, growth (OD600) after 40 h at 30° C., read-out: SCD1 IC50
[2] = yeast strain expressing human SCD5 as sole desaturase, growth (OD600) after 40 h at 30° C., read-out: SCD5 IC50

Row | Structure (SMILES) | IC50 (human SCD1; [1]) [nM] | IC50 (human SCD5; [2]) [nM] | IC50 (human SCD1; SCD1 IC50) [nM] | IC50 (human SCD5; SCD5 IC50) [nM]
1 | O=C(Nc1ccc(C=C2CCOCC2)cn1)c1ccc(CO)nc1 [Compound 637] | 12000 | 8100 | – | –
2 | COc1cc(Cc2ccc(NC(=O)c3cnc(C#N)cn3)nc2)ccc1F [Compound 638] | 3200 | 98 | – | –
3 | N#Cc1cnc(C(=O)Nc2ccc(Cc3cc(F)cc(F)c3)cn2)cn1 [Compound 639] | 490 | 39 | – | –
4 | N#Cc1nc(C(=O)Nc2ccc(Cc3cccc(F)c3)cn2)cs1 [Compound 640] | 3200 | 1300 | – | –
5 | Cn1nc(C(=O)Nc2ccc(Cc3cc(C#N)ccc3F)cn2)ccc1=O [Compound 641] | > 45000 | 540 | – | –
6 | Cn1cc(C(=O)Nc2ccc(Cc3cccc(F)c3)cn2)n(C)c1=O [Compound 642] | 92 | 10 | – | –
7 | Cn1cc(C(=O)Nc2ccc(Cc3ccc(F)c(F)c3)cn2)n(C)c1=O [Compound 643] | 72 | 10 | – | –
8 | Cn1cc(C(=O)Nc2ccc(Cc3cc(F)cc(F)c3)cn2)n(C)c1=O [Compound 644] | 42 | 10 | – | –
9 | O=C(Nc1ccc(Cc2cccc(F)c2)cn1)c1coc(Cl)n1 [Compound 645] | 1300 | 210 | – | –
10 | N#Cc1cc(F)cc(Cc2ccc(NC(=O)c3cnc(Cl)cn3)nc2)c1 [Compound 646] | > 45000 | 140 | – | –
11 | Cn1cc(C(=O)Nc2ccc(C3(c4ccc(F)c(F)c4)CC3)cn2)ccc1=O [Compound 647] | 9300 | 2400 | – | –
12 | Cn1cc(C(=O)Nc2ccc(Cc3cc(C#N)ccc3F)cn2)ccc1=O [Compound 648] | > 45000 | 990 | – | –
13 | COc1ncc(C(=O)Nc2ccc(Cc3cccc(Cl)c3)cn2)cn1 [Compound 649] | 1400 | 480 | – | –
14 | O=C(Nc1ccc(Cc2ccc(F)c(F)c2)cn1)c1ccncc1 [Compound 650] | 170 | 56 | – | –
15 | O=C(Nc1ccc(Cc2cc(F)cc(F)c2)cn1)c1ccncc1 [Compound 651] | 90 | 24 | – | –
16 | Cn1cc(C(=O)Nc2ccc(Cc3cccc(Cl)c3)cn2)cnc1=O [Compound 652] | 1900 | 86 | – | –
17 | Cn1nc(C(=O)Nc2ccc(C3(c4ccc(F)c(F)c4)CC3)cn2)ccc1=O [Compound 653] | > 45000 | 1400 | – | –
18 | N#Cc1cnc(C(=O)Nc2ccc(Cc3ccc(F)c(C#N)c3)cn2)cn1 [Compound 654] | 1900 | 56 | – | –
19 | N#Cc1cc(F)cc(Cc2ccc(NC(=O)c3cnc(C#N)cn3)nc2)c1 [Compound 655] | 360 | 35 | – | –
20 | N#Cc1cc(F)cc(Cc2ccc(NC(=O)c3ccnnc3)nc2)c1 [Compound 656] | 220 | 110 | – | –
21 | O=C(Nc1ccc(Cc2cc(F)cc(F)c2)cn1)c1cnnc(Cl)c1 [Compound 657] | 10 | 10 | – | –
22 | Cn1nc(C(=O)Nc2ccc(COc3cc(F)cc(F)c3)cn2)ccc1=O [Compound 658] | 1600 | 180 | – | –
23 | O=C(Nc1ccc(Cc2cc(F)cc(Cl)c2)cn1)c1cnc(Cl)cn1 [Compound 659] | 350 | 55 | – | –
24 | Cn1cc(C(=O)Nc2ccc(N3CC(Oc4cccc(Cl)c4)C3)cn2)ccc1=O [Compound 660] | > 45000 | 8900 | – | –
25 | N#Cc1cnc(C(=O)Nc2ccc(Cc3cc(F)cc(Cl)c3)cn2)cn1 [Compound 661] | 180 | 10 | – | –
26 | N#Cc1cc(C(=O)Nc2ccc(Cc3cc(F)cc(F)c3)cn2)cnn1 [Compound 662] | 300 | 180 | – | –
27 | Cc1cc(C(=O)Nc2ccc(Cc3cc(F)cc(C#N)c3)cn2)cnc1C#N [Compound 663] | > 45000 | 39 | – | –

Row | Structure (SMILES) | IC50 (human SCD1; [1]) [nM] | IC50 (human SCD5; [2]) [nM] | IC50 (human SCD1; SCD1 IC50) [nM] | IC50 (human SCD5; SCD5 IC50) [nM]
28 | Cn1nc(C(=O)Nc2ccc(COc3ccc(F)c(F)c3)cn2)ccc1=O [Compound 664] | 31000 | 900 | – | –
29 | Cc1cc(C(=O)Nc2ccc(Cc3cc(F)cc(C#N)c3)cn2)cnc1Cl [Compound 665] | > 45000 | 490 | – | –
30 | N#Cc1cc(F)cc(Cc2ccc(NC(=O)c3ccnc(Cl)n3)nc2)c1 [Compound 666] | 3600 | 290 | – | –
31 | Cn1nc(C(=O)Nc2ccc(COc3ccc(Cl)c(F)c3)cn2)ccc1=O [Compound 667] | > 45000 | 310 | – | –
32 | Cn1cc(C(=O)Nc2ccc(Cc3cc(F)cc(Cl)c3)cn2)n(C)c1=O [Compound 668] | 10 | 10 | – | –
33 | N#Cc1cc(Cl)cc(Cc2ccc(NC(=O)c3ccnnc3)nc2)c1 [Compound 669] | 220 | 73 | – | –
34 | Cn1nc(C(=O)Nc2ccc(COc3ccc(Cl)cc3)cn2)ccc1=O [Compound 670] | > 45000 | 1800 | – | –
35 | Cn1nc(C(=O)Nc2ccc(COc3cc(Cl)cc(C#N)c3)cn2)ccc1=O [Compound 671] | > 45000 | 2000 | – | –
36 | Cn1cc(C(=O)Nc2ccc(Cc3cc(F)cc(F)c3)cn2)ncc1=O [Compound 672] | 500 | 420 | – | –
37 | CNC(=O)c1ccnc(C(=O)Nc2ccc(Oc3ccccc3Cl)cn2)c1 [Compound 675] | > 45000 | 12000 | – | –
38 | Cc1cc(C(=O)Nc2ccc(Cc3cc(F)cc(F)c3)cn2)cn(C)c1=O [Compound 676] | 83 | 10 | – | –
39 | N#Cc1cc(Cl)cc(Cc2ccc(NC(=O)c3cnc(C#N)cn3)nc2)c1 [Compound 677] | > 45000 | 79 | – | –
40 | CNC(=O)c1ccnc(NC(=O)c2ccc(Oc3ccccc3Cl)cn2)c1 [Compound 678] | 320 | 380 | – | –
41 | Cc1cc(C(=O)Nc2ccc(Cc3ccc(F)c(F)c3)cn2)cn(C)c1=O [Compound 679] | 570 | 10 | – | –
42 | Cn1nc(C(=O)Nc2ccc(Cc3cc(F)cc(F)c3Cl)cn2)ccc1=O [Compound 680] | 2700 | 25 | – | –
43 | O=C(Nc1ccc(Cc2cccc(Cl)c2)cn1)c1nnc(C(F)(F)F)o1 [Compound 681] | > 45000 | 2100 | – | –
44 | O=C(NNC(=O)C(F)(F)F)C(=O)Nc1ccc(Cc2cccc(Cl)c2)cn1 [Compound 682] | 100 | 200 | – | –
45 | N#Cc1nc(C(=O)Nc2ccc(Cc3cc(F)cc(F)c3)cn2)co1 [Compound 683] | 8100 | 3900 | – | –
46 | CN1N=C(C(=O)Nc2ccc(Cc3cccc(Cl)c3)cn2)CCC1=O [Example 15, N-(5-(3-chlorobenzyl)pyridin-2-yl)-1-methyl-6-oxo-1,4,5,6-tetrahydropyridazine-3-carboxamide] | > 45000 | 450 | – | –
47 | CN1N=C(C(=O)Nc2ccc(Cc3cccc(C(F)(F)F)c3)cn2)CCC1=O [Example 18, 1-methyl-6-oxo-N-(5-(3-(trifluoromethyl)benzyl)pyridin-2-yl)-1,4,5,6-tetrahydropyridazine-3-carboxamide] | 8570 | 1600 | – | –
48 | CN1N=C(C(=O)Nc2ccc(Cc3ccc(Cl)c(Cl)c3)cn2)CCC1=O [Example 20, N-(5-(3,4-dichlorobenzyl)pyridin-2-yl)-1-methyl-6-oxo-1,4,5,6-tetrahydropyridazine-3-carboxamide] | 220 | 30 | – | –
49 | CN1N=C(C(=O)Nc2ccc(Cc3ccc(Cl)s3)cn2)CCC1=O [Example 21, N-(5-((5-chlorothiophen-2-yl)methyl)pyridin-2-yl)-1-methyl-6-oxo-1,4,5,6-tetrahydropyridazine-3-carboxamide] | > 45000 | 1780 | – | –
50 | CN1N=C(C(=O)Nc2ccc(Cc3cccc(C4CC4)c3)cn2)CCC1=O [Example 23, N-(5-(3-cyclopropylbenzyl)pyridin-2-yl)-1-methyl-6-oxo-1,4,5,6-tetrahydropyridazine-3-carboxamide] | > 45000 | 2490 | – | –
51 | Cn1cc(C(=O)Nc2ccc(Cc3cc(F)cc(C#N)c3)cn2)ccc1=O [Example 25, N-(5-(3-cyano-5-fluorobenzyl)pyridin-2-yl)-1-methyl-6-oxo-1,6-dihydropyridine-3-carboxamide] | – | – | 4030 | 530
52 | CN1N=C(C(=O)Nc2ccc(Cc3cccc(Br)c3)cn2)CCC1=O [Example 27, N-(5-(3-bromobenzyl)pyridin-2-yl)-1-methyl-6-oxo-1,4,5,6-tetrahydropyridazine-3-carboxamide] | > 45000 | 390 | – | –
53 | CN1N=C(C(=O)Nc2ccc(Cc3cc(F)cc(Cl)c3)cn2)CCC1=O [Example 28, N-(5-(3-chloro-5-fluorobenzyl)pyridin-2-yl)-1-methyl-6-oxo-1,4,5,6-tetrahydropyridazine-3-carboxamide] | 1950 | 20 | – | –
